Measured values taken from publication PMC4894417, “Quantitative High-Throughput Profiling of Environmental Chemicals and Drugs that Modulate Farnesoid X Receptor” (Scientific Reports, 2014).
Entries after “also recorded” stand apart in the source; their conditions may differ. Like-named read-outs stand apart in the source and are kept apart here. Blank lines part the entries; values can stand above or below the compound they belong to.

What was measured:
[1] = target: peroxisome proliferator-activated receptor gamma (PPARγ) (Homo sapiens, UniProt P37231); assay: PPARγ-bla reporter gene assay (agonist and antagonist modes)
vitamin D receptor (VDR) = vitamin D receptor (VDR) (Homo sapiens, UniProt P11473); assay: VDR-bla reporter gene assay (agonist and antagonist modes)
[2] = system: FXR-UAS-bla HEK293T cells; assay: Cell viability assay (CellTiter Glo) in the same well as FXR-bla; conditions: for Cell viability IC50: Table 1, mean ± SD of 3 experiments
androgen receptor (AR) = androgen receptor (AR) (Homo sapiens, UniProt P10275); assay: AR-bla reporter gene assay (agonist and antagonist modes)
human FXR [3] = target: T1, human FXR (Homo sapiens, UniProt Q96RI1); assay: FXR-bla reporter gene assay, agonist mode (qHTS); conditions: for FXR-bla, agonist EC50: Table 1, confirmed compounds, mean ± SD of 3 experiments; for FXR agonist activity: FXR-bla assay
human FXR [4] = target: T1, human FXR; assay: FXR-bla reporter gene assay, antagonist mode (CDCA-induced transactivation); conditions: for FXR antagonist activity: FXR-bla assay, CDCA-induced; for FXR-bla, antagonist Efficacy: Table 1, inhibition as percent of positive control (guggulsterone), 50 μM CDCA
FXR-LBD [5] = target: T2, FXR-LBD (Homo sapiens, UniProt Q96RI1); assay: FXR TR-FRET coactivator recruitment assay, agonist mode; type: biochemical; conditions: Table 1; coactivator SRC2-2 recruitment
T2 construct: The glutathione S-transferase (GST)-tagged FXR-LBD protein; purchased Life Technologies
T2 sequence (Q96RI1 262-486 limits assumed): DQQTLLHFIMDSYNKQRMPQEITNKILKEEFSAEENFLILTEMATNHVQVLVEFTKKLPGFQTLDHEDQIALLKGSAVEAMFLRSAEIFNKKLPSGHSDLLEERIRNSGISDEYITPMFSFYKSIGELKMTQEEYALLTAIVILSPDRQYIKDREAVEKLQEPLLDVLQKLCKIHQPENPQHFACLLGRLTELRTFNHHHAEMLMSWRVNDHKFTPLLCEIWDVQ

FXR-LBD [6] = target: T2, FXR-LBD; assay: FXR TR-FRET coactivator recruitment assay, antagonist mode (50 μM CDCA); type: biochemical
[7] = target: estrogen receptor alpha (ERα) (Homo sapiens, UniProt P03372); assay: ERα-bla reporter gene assay (agonist and antagonist modes)
[8] = target: peroxisome proliferator-activated receptor delta (PPARδ) (Homo sapiens, UniProt Q03181); assay: PPARδ-bla reporter gene assay (agonist and antagonist modes)
[9] = Cell viability assay (CellTiter Glo) in the same well as FXR-bla; conditions: human, FXR-UAS-bla HEK293T cells
[10] = Table S1, primary screening, 50 µM CDCA
[11] = Table 1, in the presence of 50 μM CDCA
[12] = Table S1, primary screening, CDCA 100%

Chain of androgen receptor (AR) (P10275 with tags, fused parts or gaps limits assumed): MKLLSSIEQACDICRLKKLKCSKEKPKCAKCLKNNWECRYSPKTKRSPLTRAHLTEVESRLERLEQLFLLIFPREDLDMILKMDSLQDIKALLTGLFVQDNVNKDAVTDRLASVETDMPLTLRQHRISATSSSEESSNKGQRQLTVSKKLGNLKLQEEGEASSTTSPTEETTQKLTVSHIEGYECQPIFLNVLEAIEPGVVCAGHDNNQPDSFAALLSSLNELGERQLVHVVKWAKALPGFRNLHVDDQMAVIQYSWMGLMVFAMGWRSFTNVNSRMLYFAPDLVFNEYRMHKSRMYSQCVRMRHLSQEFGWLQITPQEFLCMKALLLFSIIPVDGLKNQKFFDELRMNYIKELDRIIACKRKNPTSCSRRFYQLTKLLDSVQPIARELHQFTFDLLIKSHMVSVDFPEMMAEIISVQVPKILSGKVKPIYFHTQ
Chain of vitamin D receptor (VDR) (P11473 with tags, fused parts or gaps limits assumed): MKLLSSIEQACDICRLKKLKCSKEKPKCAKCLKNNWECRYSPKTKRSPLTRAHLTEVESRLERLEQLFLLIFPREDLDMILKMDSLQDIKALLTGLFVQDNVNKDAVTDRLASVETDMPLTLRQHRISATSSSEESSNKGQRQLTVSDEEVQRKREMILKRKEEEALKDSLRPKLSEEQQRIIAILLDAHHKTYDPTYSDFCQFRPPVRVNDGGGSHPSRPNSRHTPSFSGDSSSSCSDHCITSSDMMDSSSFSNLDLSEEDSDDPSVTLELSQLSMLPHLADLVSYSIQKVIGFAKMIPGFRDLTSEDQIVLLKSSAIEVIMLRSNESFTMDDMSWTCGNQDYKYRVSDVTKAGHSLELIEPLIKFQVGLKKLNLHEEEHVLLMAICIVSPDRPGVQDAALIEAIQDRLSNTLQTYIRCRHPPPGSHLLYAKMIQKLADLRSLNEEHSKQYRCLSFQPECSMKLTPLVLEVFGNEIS
Chain of peroxisome proliferator-activated receptor delta (PPARδ) (Q03181 with tags, fused parts or gaps limits assumed): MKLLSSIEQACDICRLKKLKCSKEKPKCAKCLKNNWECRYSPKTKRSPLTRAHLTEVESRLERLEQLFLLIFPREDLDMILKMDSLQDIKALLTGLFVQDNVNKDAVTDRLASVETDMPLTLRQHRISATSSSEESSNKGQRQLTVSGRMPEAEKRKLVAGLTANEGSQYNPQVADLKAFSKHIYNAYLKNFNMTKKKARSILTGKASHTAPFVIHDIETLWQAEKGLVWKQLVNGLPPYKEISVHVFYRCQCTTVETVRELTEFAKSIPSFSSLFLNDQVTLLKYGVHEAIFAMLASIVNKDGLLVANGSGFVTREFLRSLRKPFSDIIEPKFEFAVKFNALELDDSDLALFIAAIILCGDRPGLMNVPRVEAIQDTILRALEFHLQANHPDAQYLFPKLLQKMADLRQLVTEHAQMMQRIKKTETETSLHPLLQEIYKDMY
Chain of estrogen receptor alpha (ERα) (P03372 with tags, fused parts or gaps limits assumed): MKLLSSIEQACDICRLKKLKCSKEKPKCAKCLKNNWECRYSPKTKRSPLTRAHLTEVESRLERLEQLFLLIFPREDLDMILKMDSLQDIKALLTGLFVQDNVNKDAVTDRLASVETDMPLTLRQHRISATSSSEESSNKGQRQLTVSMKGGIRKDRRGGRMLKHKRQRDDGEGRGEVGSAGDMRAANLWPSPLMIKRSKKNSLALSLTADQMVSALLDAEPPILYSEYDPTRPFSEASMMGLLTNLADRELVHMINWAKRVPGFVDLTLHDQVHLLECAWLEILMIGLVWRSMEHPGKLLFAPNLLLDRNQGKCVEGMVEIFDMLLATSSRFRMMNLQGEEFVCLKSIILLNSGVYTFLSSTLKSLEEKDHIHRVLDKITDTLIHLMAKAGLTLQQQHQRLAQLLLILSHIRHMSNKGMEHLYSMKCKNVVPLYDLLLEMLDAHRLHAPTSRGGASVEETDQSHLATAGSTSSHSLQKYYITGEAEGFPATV
T1 sequence (Q96RI1 with tags, fused parts or gaps limits assumed): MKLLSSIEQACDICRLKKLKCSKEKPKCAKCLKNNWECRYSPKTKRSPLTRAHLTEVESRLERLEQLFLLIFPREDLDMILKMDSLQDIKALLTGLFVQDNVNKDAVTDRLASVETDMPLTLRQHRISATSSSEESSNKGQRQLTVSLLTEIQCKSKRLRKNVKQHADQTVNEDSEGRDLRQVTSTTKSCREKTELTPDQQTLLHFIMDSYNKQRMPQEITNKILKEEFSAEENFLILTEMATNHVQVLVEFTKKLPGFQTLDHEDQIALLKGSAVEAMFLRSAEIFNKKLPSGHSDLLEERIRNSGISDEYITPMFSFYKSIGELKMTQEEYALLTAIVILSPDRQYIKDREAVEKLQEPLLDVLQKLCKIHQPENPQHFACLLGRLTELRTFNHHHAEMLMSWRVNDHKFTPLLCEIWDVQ
Chain of peroxisome proliferator-activated receptor gamma (PPARγ) (P37231 with tags, fused parts or gaps limits assumed): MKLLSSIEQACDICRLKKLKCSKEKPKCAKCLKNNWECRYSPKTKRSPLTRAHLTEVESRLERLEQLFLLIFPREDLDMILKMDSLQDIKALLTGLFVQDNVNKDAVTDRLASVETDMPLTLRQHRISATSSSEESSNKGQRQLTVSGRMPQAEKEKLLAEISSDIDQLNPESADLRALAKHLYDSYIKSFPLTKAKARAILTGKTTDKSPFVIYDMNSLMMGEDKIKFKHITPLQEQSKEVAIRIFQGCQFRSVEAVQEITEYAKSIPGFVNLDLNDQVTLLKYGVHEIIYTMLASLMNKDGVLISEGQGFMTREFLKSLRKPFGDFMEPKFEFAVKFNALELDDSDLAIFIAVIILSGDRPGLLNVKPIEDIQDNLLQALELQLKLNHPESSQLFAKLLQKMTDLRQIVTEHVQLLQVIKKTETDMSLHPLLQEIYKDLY

Compound: COC(=O)Nc1nc2ccccc2[nH]1 [Carbendazole]
- PPARγ activity [1]: inhibiting β-lactamase expression
- VDR activity (vitamin D receptor (VDR)): inhibiting β-lactamase expression
- Cytotoxicity IC50 ([2]; Table S1, primary screening): Inactive
- AR activity (androgen receptor (AR)): inhibiting β-lactamase expression

Compound: COc1cc2c(c(OC)c1OC)-c1ccc(OC)c(=O)cc1[C@@H](NC(C)=O)CC2 [Colchicine]
- PPARγ activity [1]: inhibiting β-lactamase expression
- FXR-bla, agonist EC50 (human FXR [3]): Inactive
- FXR antagonist Efficacy (human FXR [4]): 55 ± 11%
- FXR antagonist activity (human FXR [4]): inhibiting β-lactamase expression
- IC50 (human FXR [4]; FXR-bla, antagonist IC50): 0.03 µM
- IC50 (human FXR [4]; IC50, FXR-bla antagonist mode, Figure 4, primary screen): 0.011 µM
- VDR activity (vitamin D receptor (VDR)): inhibiting β-lactamase expression
- Cell viability IC50 [2]: Inactive
- AR activity (androgen receptor (AR)): inhibiting β-lactamase expression
- FXR TR-FRET, agonist EC50 (FXR-LBD [5]): Inactive
- IC50 (FXR-LBD [6]): 0.03 µM
- ERα activity [7]: antagonized

Compound: COc1cccc2c1C(=O)c1c(O)c3c(c(O)c1C2=O)C[C@@](O)(C(C)=O)C[C@@H]3O[C@H]1C[C@H](N)[C@H](O)[C@H](C)O1 [Daunorubicin]
- PPARγ activity [1]: antagonist response
- PPARδ activity [8]: antagonist response
- VDR activity (vitamin D receptor (VDR)): antagonist response

Compound: COC1=CC(=O)C[C@@H](C)[C@]12Oc1c(Cl)c(OC)cc(OC)c1C2=O [Griseofulvin]
- PPARγ activity [1]: inhibiting β-lactamase expression
- FXR agonist mode EC50 (human FXR [3]; Table S1, primary screening): Inactive
- IC50 (human FXR [4]): 42.3 ± 17.3 µM
- FXR antagonist activity (human FXR [4]): antagonistic effects; also recorded: inhibiting β-lactamase expression
- FXR antagonist mode Efficacy (human FXR [4]; [10]): 42 ± 7%
- VDR activity (vitamin D receptor (VDR)): inhibiting β-lactamase expression
- Cytotoxicity IC50 ([2]; Table S1, primary screening): Inactive
- ERα activity [7]: antagonized

Compound: COC(=O)Nc1nc2ccc(C(=O)c3ccccc3)cc2[nH]1 [Mebendazole]
- PPARγ activity [1]: inhibiting β-lactamase expression
- FXR-bla, agonist EC50 (human FXR [3]): Inactive
- IC50 (human FXR [4]): 2.19 ± 1.51 µM
- FXR antagonist activity (human FXR [4]): inhibiting β-lactamase expression
- FXR-bla, antagonist Efficacy (human FXR [4]): 70 ± 9%
- FXR antagonist Efficacy (human FXR [4]; Table S3, 50 µM CDCA): 66 ± 12%
- VDR activity (vitamin D receptor (VDR)): inhibiting β-lactamase expression
- Cell viability IC50 [2]: Inactive
- AR activity (androgen receptor (AR)): inhibiting β-lactamase expression
- FXR TR-FRET, agonist EC50 (FXR-LBD [5]): Inactive
- FXR TR-FRET, antagonist IC50 (FXR-LBD [6]; [11]): Inactive

Compound: COc1cccc2c1C(=O)c1c(O)c3c(c(O)c1C2=O)C[C@@](O)(C(=O)CO)C[C@@H]3O[C@H]1C[C@H](N)[C@H](O[C@@H]2CCCCO2)[C@H](C)O1 [Pirarubicin]
- PPARγ activity [1]: antagonist response
- EC50 (human FXR [3]): 16.9 ± 11 µM
- FXR agonist mode Efficacy (human FXR [3]): 20 ± 9%
- PPARδ activity [8]: antagonist response
- FXR antagonist mode Efficacy (human FXR [4]): 60 ± 23%
- IC50 (human FXR [4]; FXR antagonist mode IC50): 21.3 ± 15.6 µM
- VDR activity (vitamin D receptor (VDR)): antagonist response
- Cytotoxicity IC50 ([2]; Table S1, primary screening): Inactive
- AR activity (androgen receptor (AR)): mixed agonist/antagonist response
- ERα activity [7]: mixed agonist/antagonist response

Compound: COc1cc([C@@H]2c3cc4c(cc3[C@H](O)[C@H]3COC(=O)[C@H]23)OCO4)cc(OC)c1OC [Podofilox]
- PPARγ activity [1]: inhibiting β-lactamase expression
- VDR activity (vitamin D receptor (VDR)): inhibiting β-lactamase expression
- AR activity (androgen receptor (AR)): inhibiting β-lactamase expression

The next lines start with results.

- PPARγ activity [1]: antagonist response
- PPARδ activity [8]: antagonist response
- VDR activity (vitamin D receptor (VDR)): antagonist response
- ERα activity [7]: mixed agonist/antagonist response
Compound: COc1cccc2c1C(=O)c1c(O)c3c(c(O)c1C2=O)C[C@@](O)(C(=O)CO)C[C@@H]3O[C@H]1C[C@H](N)[C@H](O)[C@H](C)O1 [Doxorubicin]
- Cell viability IC50 [2]: Inactive

- PPARδ activity [8]: activated
Compound: CCOC(=O)C1=C(C)NC(C)=C(C(=O)OC)C1c1cccc(Cl)c1Cl (stereo not shown) [Felodipine]

- PPARγ activity [1]: antagonist response
- EC50 (human FXR [3]): 1.37 ± 0.38 µM
- FXR-bla, agonist Efficacy (human FXR [3]; Table 1, activation as percent of positive control (CDCA 100%), mean ± SD of 3): 42 ± 16%
- FXR agonist EC50 (human FXR [3]; Table S3, FXR-active drugs): Inactive
- PPARδ activity [8]: antagonist response
- FXR-bla, antagonist Efficacy (human FXR [4]): 107 ± 3%
- FXR antagonist Efficacy (human FXR [4]; Table S3, 50 µM CDCA): 105 ± 11%
- VDR activity (vitamin D receptor (VDR)): antagonist response
- AR activity (androgen receptor (AR)): mixed agonist/antagonist response
- FXR TR-FRET, agonist EC50 (FXR-LBD [5]): Inactive
- FXR TR-FRET, antagonist Efficacy (FXR-LBD [6]; [11]): 162 ± 41%
- ERα activity [7]: mixed agonist/antagonist response
Compound: CC(=O)[C@]1(O)Cc2c(O)c3c(c(O)c2[C@@H](O[C@H]2C[C@H](N)[C@H](O)[C@H](C)O2)C1)C(=O)c1ccccc1C3=O [Idarubicin]
- Cell viability IC50 [2]: Inactive

- FXR agonist mode Efficacy (human FXR [3]; [12]): 20 ± 7%
- FXR antagonist mode Efficacy (human FXR [4]; [10]): 75 ± 40%
Compound: C[C@H](CCC(=O)O)[C@H]1CC[C@H]2[C@@H]3CC[C@@H]4C[C@H](O)CC[C@]4(C)[C@H]3CC[C@]12C [LCA, lithocholic acid]
- FXR agonist activity (human FXR [3]): selectively induced transactivation of FXR
- Cytotoxicity Efficacy ([2]; Table S1, primary screening): 65 ± 22%
- IC50 at 16 h [9]: 43.8 ± 4.18 µM

- EC50 (human FXR [3]): 23.5 ± 10.1 µM
- FXR agonist activity (human FXR [3]): activated
- FXR agonist mode Efficacy (human FXR [3]; [12]): 70 ± 41%
- PPARδ activity [8]: activated
- IC50 (human FXR [4]): 32.3 ± 2.1 µM
- FXR antagonist mode Efficacy (human FXR [4]; [10]): 55 ± 20%
- AR activity (androgen receptor (AR)): activated
- ERα activity [7]: activated
Compound: CCOC(=O)C1=C(C)NC(C)=C(C(=O)OCC)C1c1ccccc1/C=C/C(=O)OC(C)(C)C [Lacidipine]
- Cytotoxicity Efficacy ([2]; Table S1, primary screening): 56 ± 39%
- IC50 at 16 h [9]: 54.5 ± 39.5 µM

- PPARδ activity [8]: activated
- AR activity (androgen receptor (AR)): activated
- ERα activity [7]: activated
Compound: COC(=O)C1=C(C)NC(COC(N)=O)=C(C(=O)OC(C)C)C1c1cccc(Cl)c1Cl (stereo not shown) [Lemildipine]

- EC50 (human FXR [3]): 6.92 ± 4 µM
- FXR agonist activity (human FXR [3]): weak FXR agonist activity
- FXR agonist mode Efficacy (human FXR [3]; [12]): 13 ± 1%
- IC50 (human FXR [4]): 19.2 ± 10.4 µM
- FXR antagonist mode Efficacy (human FXR [4]; [10]): 57 ± 35%
Compound: COC(=O)C1=C(C)NC(C)=C(C(=O)OCCN2CCN(C(c3ccccc3)c3ccccc3)CC2)C1c1cccc([N+](=O)[O-])c1 (stereo not shown) [Manidipine]
- Cytotoxicity Efficacy ([2]; Table S1, primary screening): 49 ± 17%
- IC50 at 16 h [9]: 18.2 ± 15.1 µM

- EC50 (human FXR [3]): 3.64 ± 0.84 µM
- FXR agonist activity (human FXR [3]): weak FXR agonist activity
- FXR agonist mode Efficacy (human FXR [3]; [12]): 33 ± 7%
- FXR agonist Efficacy (human FXR [3]; Table S3): 33 ± 7%
- IC50 (human FXR [4]): 16.7 ± 5.67 µM
- FXR antagonist mode Efficacy (human FXR [4]; [10]): 116 ± 10%
- FXR antagonist Efficacy (human FXR [4]; Table S3, 50 µM CDCA): 116 ± 10%
Compound: COC(=O)C1=C(C)NC(C)=C(C(=O)OCCN(C)Cc2ccccc2)C1c1cccc([N+](=O)[O-])c1 (stereo not shown) [Nicardipine]
- Cytotoxicity Efficacy ([2]; Table S1, primary screening): 125 ± 27%
- Cytotoxicity Efficacy ([2]; Table S3): 125 ± 27%
- EC50 at 16 h [9]: 31.9 ± 15.8 µM
- IC50 at 16 h [9]: 31.9 ± 15.8 µM

- FXR-bla, agonist EC50 (human FXR [3]): Inactive
- IC50 (human FXR [4]): 1.84 ± 0.77 µM
- FXR-bla, antagonist Efficacy (human FXR [4]): 86 ± 25%
- FXR antagonist Efficacy (human FXR [4]; Table S3, 50 µM CDCA): 96 ± 16%
- FXR TR-FRET, agonist EC50 (FXR-LBD [5]): Inactive
- FXR TR-FRET, antagonist Efficacy (FXR-LBD [6]; [11]): 73 ± 1%
Compound: CCc1c(C(=O)NN2CCCCC2)nn(-c2ccc(Cl)cc2Cl)c1-c1ccc(Br)cc1 [Surinabant]
- IC50 ([2]; Homo sapiens, HEK-293T, read-out: Cell viability IC50): 17.1 ± 1.12 µM
- Cytotoxicity Efficacy ([2]; Table S3): 66 ± 17%
- EC50 at 16 h [9]: 34.1 ± 13.5 µM
